Where two headings read alike, the source gives them in different places.
What was measured:
[1] = tested on: MDA-MB-468 breast cancer cells; experiment: Cytotoxicity test (CCK-8); assay type: cell-based
Protocol: Cytotoxicity of all the tested compounds was determined using the cell counting kit‐8 (CCK‐8) assay kit (Beyotime, Shanghai, China). Briefly, MDA‐MB‐468 was cultured in L15 medium and plated in 96‐well plates at a density of 12,000 cells per well for 24 h at 37 °C in a 5% CO2 incubator. The tested compounds were dissolved in DMSO and diluted with culture medium (DMSO final concentration < 0.4%). Then the cells were treated with compounds (0.41, 1.23, 3.70, 11.11, 33.33, 100.00 µM) for 48 h. After treatments, removal of the supernatant liquor, 100 µL of new media diluted CCK‐8 solution (10% CCK‐8) was added into each well and incubated at 37 °C for 2 h. The absorbance of the mixture was directly measured at 450 nm. The results are presented as a percentage of the control.

Kir4.1 = molecular target: T1, Kir4.1 (Homo sapiens, UniProt P78508); experiment: Whole-cell patch clamp, Kir4.1 currents in transfected CHO-K1 cells; assay type: cell-based; settings: for inhibition at 0.5 µM: CHO-K1, 0.5 μM; for inhibition at 1 µM: CHO-K1, 1 μM; for inhibition at 10 µM: CHO-K1, 10 μM; for IC50: whole-cell patch clamp
T1 construct: host or cells: CHO-K1
T1 sequence (P78508 1-379): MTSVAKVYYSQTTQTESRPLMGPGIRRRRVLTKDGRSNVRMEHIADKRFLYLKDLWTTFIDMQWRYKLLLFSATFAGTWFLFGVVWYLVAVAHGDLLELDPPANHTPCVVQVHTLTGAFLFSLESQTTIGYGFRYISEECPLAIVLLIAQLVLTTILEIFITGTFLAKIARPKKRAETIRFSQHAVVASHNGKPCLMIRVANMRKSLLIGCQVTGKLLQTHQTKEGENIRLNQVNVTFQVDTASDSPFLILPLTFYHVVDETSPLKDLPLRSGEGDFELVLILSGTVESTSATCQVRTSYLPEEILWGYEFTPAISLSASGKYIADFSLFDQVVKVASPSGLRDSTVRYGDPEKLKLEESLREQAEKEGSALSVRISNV
Protocol: Plasmids encoding WT human potassium channels Kir1.1, Kir2.1, Kir2.2, Kir4.1, and Kir4.2 were obtained from the Beijing Genomics Institute. All point mutations were constructed using the QuickChange II Site‐Directed Mutagenesis Kit (Stratagene) and subsequently verified by sequencing.
CHO‐K1 cells were maintained in DMEM/F12 growth medium containing 10% fetal bovine serum. Plasmids encoding the target genes (3600 ng) and enhanced green fluorescent protein (400 ng) were cotransfected into cells using Lipofectamine 2000 (Invitrogen) in accordance with the manufacturer's instructions. Cells were seeded onto poly‐d‐lysine (PDL)‐coated glass coverslips 1 h prior to electrophysiological recordings. All cells were cultured under standard conditions of 5% CO2 at 37 °C.
Whole‐cell patch‐clamp recordings were obtained either in transiently transfected CHO‐K1 cells or in primary cultured astrocytes at room temperature using standard patch‐clamp techniques with an Axopatch‐700B amplifier (Axon Instruments). The signals were filtered at 2 kHz and sampled at 20 kHz using the Digidata 1440A interface (Axon Instruments). The resistance of borosilicate glass pipettes was typically 2–4 MΩ when filled with the internal solution. Drug application was facilitated using a BPS perfusion system (ALA Scientific Instruments). Macroscopic currents generated by expressed potassium channels were recorded under the voltage‐clamp conditions with an internal pipette solution composed of (in mM): 140 KCl, 5 NaCl, 1 CaCl2, 1 MgCl2, 10 HEPES, and 10 EGTA, pH 7.2 adjusted with KOH. The external solution contained (in mM): 140 NaCl, 5 KCl, 2 CaCl2, 1 MgCl2, 10 glucose, and 10 HEPES, pH 7.4 adjusted with NaOH. Currents were elicited with a hyperpolarized voltage at −120 mV from the holding potential of −80 mV, followed by a ramp voltage depolarizing to +50 mV. Astrocytic resting membrane potentials were recorded under current‐clamp conditions (I = 0 pA) using standard internal and external solutions, determined immediately after achieving whole‐cell mode.

[2] = +50 mV, read-out: Kir4.1 Inhibition ± SD (%) at 0.5 μM, +50 mV
[3] = -120 mV, read-out: Kir4.1 Inhibition ± SD (%) at 0.5 μM, -120 mV
[4] = +50 mV, read-out: Kir4.1 Inhibition ± SD (%) at 1 μM, +50 mV
[5] = -120 mV, read-out: Kir4.1 Inhibition ± SD (%) at 1 μM, -120 mV
[6] = +50 mV, read-out: Kir4.1 Inhibition ± SD (%) at 10 μM, +50 mV
[7] = -120 mV, read-out: Kir4.1 Inhibition ± SD (%) at 10 μM, -120 mV
[8] = Homo sapiens, MDA-MB-468, MDA-MB-468 breast cancer cells, read-out: IC50 ± SD (μM) for MDA-MB-468 Inhibition

## CCn1c2ccccc2c2cc(Nc3ccnc(NCCCN4CCOCC4)n3)ccc21 [EHop-016, N ^4‐(9‐ethyl‐9H‐carbazole‐3‐yl)‐N ^2‐(3‐morpholinopropyl)pyrimidine‐2,4‐diamine, reference compound]
[1]; Homo sapiens, MDA-MB-468, 48 h, CCK-8, 48 h, read-out: IC50 against MDA-MB-468 breast cancer cells
  IC50: 5.98 ± 0.67 µM
Kir4.1; [2]
  inhibition at 0.5 µM: 17.2 ± 2.53%
Kir4.1; [3]
  inhibition at 0.5 µM: 19 ± 3.75%
Kir4.1; [4]
  inhibition at 1 µM: 76 ± 1.81%
Kir4.1; [5]
  inhibition at 1 µM: 64.6 ± 5.93%
Kir4.1; [6]
  inhibition at 10 µM: 96.6 ± 1.38%
Kir4.1; [7]
  inhibition at 10 µM: 97 ± 1.86%
Kir4.1; CHO cells transiently expressing Kir4.1, +50 mV, read-out: IC50 for Kir4.1 inhibition (+50 mV, outward currents)
  IC50: 0.61 µM
Kir4.1; CHO cells transiently expressing Kir4.1, −120 mV, read-out: IC50 for Kir4.1 inhibition (−120 mV, inward currents)
  IC50: 0.74 µM

## Nc1ccnc(NCCCN2CCOCC2)n1 [JX3201, N^2-(3-morpholinopropyl)pyrimidine-2,4-diamine]
[1]; [8]
  IC50: > 50 µM
Kir4.1; [6]
  inhibition at 10 µM: 3.02 ± 1.37%
Kir4.1; [7]
  inhibition at 10 µM: 4.04 ± 7.66%

## c1cc(NC2CCCCC2)nc(NCCCN2CCOCC2)n1 [JX3202, N^4-cyclohexyl-N^2-(3-morpholinopropyl)pyrimidine-2,4-diamine]
[1]; [8]
  IC50: 21.1 ± 2.08 µM
Kir4.1; [6]
  inhibition at 10 µM: 6.08 ± 3.06%
Kir4.1; [7]
  inhibition at 10 µM: 2.79 ± 2.22%

## c1cc(NC23CC4CC(CC(C4)C2)C3)nc(NCCCN2CCOCC2)n1 [JX3203, N^4-((1s,3s)-adamantan-1-yl)-N^2-(3-morpholinopropyl)pyrimidine-2,4-diamine]
[1]; MDA-MB-468 breast cancer cells, read-out: IC50 ± SD (μM) for MDA-MB-468 Inhibition
  IC50: 22.2 ± 5.05 µM
Kir4.1; 10 μM, +50 mV
  Kir4.1 Inhibition ± SD (%) at 10 μM, +50 mV: 64.79 ± 0.85%
Kir4.1; 10 μM, -120 mV
  Kir4.1 Inhibition ± SD (%) at 10 μM, -120 mV: 31.27 ± 3.29%

## c1ccc(Nc2ccnc(NCCCN3CCOCC3)n2)cc1 [JX3204, N^2-(3-morpholinopropyl)-N^4-phenylpyrimidine-2,4-diamine]
[1]; [8]
  IC50: > 50 µM
Kir4.1; [6]
  inhibition at 10 µM: 5.73 ± 2.33%
Kir4.1; [7]
  inhibition at 10 µM: 0.47 ± 2.29%

## c1ccc2cc(Nc3ccnc(NCCCN4CCOCC4)n3)ccc2c1 [JX3205, N^2-(3-morpholinopropyl)-N^4-(naphthalen-2-yl)pyrimidine-2,4-diamine]
[1]; [8]
  IC50: 16.9 ± 1.65 µM
Kir4.1; [6]
  inhibition at 10 µM: 36.5 ± 10.2%
Kir4.1; [7]
  inhibition at 10 µM: 8.88 ± 10.2%

## c1cc(Nc2ccc3[nH]ccc3c2)nc(NCCCN2CCOCC2)n1 [JX3206, N^4-(1H-indol-5-yl)-N^2-(3-morpholinopropyl)pyrimidine-2,4-diamine]
[1]; [8]
  IC50: > 50 µM
Kir4.1; [6]
  inhibition at 10 µM: 38.4 ± 5.37%
Kir4.1; [7]
  inhibition at 10 µM: 25.9 ± 1.96%

## O=c1c2ccccc2[nH]c2ccc(Nc3ccnc(NCCCN4CCOCC4)n3)cc12 [JX3208, 2-((2-((3-morpholinopropyl)amino)pyrimidin-4-yl)amino)acridin-9(10H)-one]
[1]; [8]
  IC50: 16.8 ± 0.51 µM
Kir4.1; [6]
  inhibition at 10 µM: 1.43 ± 3.1%
Kir4.1; [7]
  inhibition at 10 µM: 2.21 ± 9.84%

## c1ccc2nc3ccc(Nc4ccnc(NCCCN5CCOCC5)n4)cc3cc2c1 [JX3209, N^4-(acridin-2-yl)-N^2-(3-morpholinopropyl)pyrimidine-2,4-diamine]
[1]; [8]
  IC50: 38.4 ± 4.21 µM
Kir4.1; [4]
  inhibition at 1 µM: -0.09 ± 6.09%
Kir4.1; [5]
  inhibition at 1 µM: 5.58 ± 4.14%
Kir4.1; [6]
  inhibition at 10 µM: 85.9 ± 3.9%
Kir4.1; [7]
  inhibition at 10 µM: 86.4 ± 4.85%

## CC1(C)c2ccccc2-c2cc(Nc3ccnc(NCCCN4CCOCC4)n3)ccc21 [JX3210, N^4-(9,9-dimethyl-9H-fluoren-3-yl)-N^2-(3-morpholinopropyl)pyrimidine-2,4-diamine]
[1]; [8]
  IC50: 2.66 ± 0.51 µM
Kir4.1; [4]
  inhibition at 1 µM: 62 ± 4.2%
Kir4.1; [5]
  inhibition at 1 µM: 42.7 ± 2.34%
Kir4.1; [6]
  inhibition at 10 µM: 93.2 ± 3.42%
Kir4.1; [7]
  inhibition at 10 µM: 98.69 ± 0.66%

## O=C1c2ccccc2-c2cc(Nc3ccnc(NCCCN4CCOCC4)n3)ccc21 [JX3211, 3-((2-((3-morpholinopropyl)amino)pyrimidin-4-yl)amino)-9H-fluoren-9-one]
[1]; [8]
  IC50: 29.8 ± 0.5 µM
Kir4.1; [4]
  inhibition at 1 µM: 28.8 ± 5.45%
Kir4.1; [5]
  inhibition at 1 µM: 21.3 ± 8.61%
Kir4.1; [6]
  inhibition at 10 µM: 89.2 ± 1.72%
Kir4.1; [7]
  inhibition at 10 µM: 81 ± 2.36%

## c1ccc2c3c([nH]c2c1)CCC(Nc1ccnc(NCCCN2CCOCC2)n1)C3 (stereo not drawn) [JX3213, N^2-(3-morpholinopropyl)-N^4-(2,3,4,9-tetrahydro-1H-carbazol-3-yl)pyrimidine-2,4-diamine]
[1]; [8]
  IC50: 17.7 ± 3.05 µM
Kir4.1; [4]
  inhibition at 1 µM: 55 ± 3.87%
Kir4.1; [5]
  inhibition at 1 µM: 41.2 ± 4.03%
Kir4.1; [6]
  inhibition at 10 µM: 79.1 ± 3.7%
Kir4.1; [7]
  inhibition at 10 µM: 65.1 ± 4.67%

## C1=Nc2ccccc2Oc2ccc(Nc3ccnc(NCCCN4CCOCC4)n3)cc21 [JX3214, N^4-(dibenzo[b,f][1,4]oxazepin-2-yl)-N^2-(3-morpholinopropyl)pyrimidine-2,4-diamine]
[1]; [8]
  IC50: 4.64 ± 0.41 µM
Kir4.1; [4]
  inhibition at 1 µM: 60.4 ± 6.32%
Kir4.1; [5]
  inhibition at 1 µM: 56.6 ± 3.9%
Kir4.1; [6]
  inhibition at 10 µM: 93.6 ± 4.14%
Kir4.1; [7]
  inhibition at 10 µM: 94.52 ± 0.7%

## c1ccc2c(c1)ccc1[nH]c3ccc(Nc4ccnc(NCCCN5CCOCC5)n4)cc3c12 [JX3215, N^4-(7H-benzo[c]carbazol-10-yl)-N^2-(3-morpholinopropyl)pyrimidine-2,4-diamine]
[1]; [8]
  IC50: 6.72 ± 0.28 µM
Kir4.1; [2]
  inhibition at 0.5 µM: 39.5 ± 5.16%
Kir4.1; [3]
  inhibition at 0.5 µM: 30.3 ± 5.33%
Kir4.1; [4]
  inhibition at 1 µM: 79.3 ± 3.86%
Kir4.1; [5]
  inhibition at 1 µM: 71 ± 2.19%
Kir4.1; [6]
  inhibition at 10 µM: 95.83 ± 0.42%
Kir4.1; [7]
  inhibition at 10 µM: 89.8 ± 1.62%

## Cc1cnc(NCCCN2CCOCC2)nc1Nc1ccc2oc3ccccc3c2c1 [JX3216, N^4-(dibenzo[b,d]furan-2-yl)-5-methyl-N^2-(3-morpholinopropyl)pyrimidine-2,4-diamine]
[1]; [8]
  IC50: 17.9 ± 0.65 µM
Kir4.1; [4]
  inhibition at 1 µM: 16.8 ± 8.93%
Kir4.1; [5]
  inhibition at 1 µM: 9.55 ± 3.62%
Kir4.1; [6]
  inhibition at 10 µM: 97.02 ± 0.67%
Kir4.1; [7]
  inhibition at 10 µM: 92 ± 1.98%

## Fc1cnc(NCCCN2CCOCC2)nc1Nc1ccc2oc3ccccc3c2c1 [JX3217, N^4-(dibenzo[b,d]furan-2-yl)-5-fluoro-N^2-(3-morpholinopropyl)pyrimidine-2,4-diamine]
[1]; [8]
  IC50: > 50 µM
Kir4.1; [6]
  inhibition at 10 µM: 11.9 ± 10.1%
Kir4.1; [7]
  inhibition at 10 µM: 7.77 ± 6.65%

## COc1cnc(NCCCN2CCOCC2)nc1Nc1ccc2oc3ccccc3c2c1 [JX3218, N^4-(dibenzo[b,d]furan-2-yl)-5-methoxy-N^2-(3-morpholinopropyl)pyrimidine-2,4-diamine]
[1]; [8]
  IC50: 13.3 ± 0.3 µM
Kir4.1; [4]
  inhibition at 1 µM: 1.15 ± 2.32%
Kir4.1; [5]
  inhibition at 1 µM: 3.97 ± 2.03%
Kir4.1; [6]
  inhibition at 10 µM: 86.8 ± 1.76%
Kir4.1; [7]
  inhibition at 10 µM: 74.3 ± 4.51%
